Data taken from patent US8022225B2, “Triazole derivative” (Taisho Pharmaceutical Co., Ltd, priority 2004, dated 2011).

Experiments:
human Edg-1(S1P1) [1] = biological target: T1, human Edg-1(S1P1) (Homo sapiens, UniProt P21453); experiment: Cell system binding test: inhibition of [3H]-S1P binding to Edg-1(S1P1) gene transferred HEK-293 cells; conditions: [3H]-S1P 10 nM
T1 construct: expressed in transfected cells; host or cells: HEK-293

human Edg-1(S1P1) [2] = biological target: T1, human Edg-1(S1P1); experiment: Membrane system binding test: inhibition of [33P]-S1P binding to the membrane fraction of Edg-1(S1P1) gene transferred HEK-293 cells; conditions: [33P]-S1P 0.1 nM
How it was run: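 Compound tested at 10^−5 M final (0.1% DMSO) for blocking 0.1 nM [^33P]-S1P binding to S1P1-expressing HEK-293 membranes, 30 °C, 1 h. Radioactivity retained on filters was counted, and percent inhibition derived relative to vehicle binding, correcting for the background of non-transfected HEK-293 membranes.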

[3] = 10 μM compound, read-out: Cell system binding test % inhibition (10 μM)
[4] = 10 μM compound, membrane fraction of Edg-1(S1P1) gene transferred HEK-293 cells, read-out: Membrane system binding test % inhibition (10 μM)
[5] = test compound 10^-5 M, 1 hour, read-out: Edg-1(S1P1) binding inhibition rate (cell system binding test)
[6] = test compound 10^-5 M, 1 hour at 30° C., HEK-293 membrane fraction, read-out: Edg-1(S1P1) binding inhibition rate (membrane system binding test)

T1 sequence (P21453 whole entry): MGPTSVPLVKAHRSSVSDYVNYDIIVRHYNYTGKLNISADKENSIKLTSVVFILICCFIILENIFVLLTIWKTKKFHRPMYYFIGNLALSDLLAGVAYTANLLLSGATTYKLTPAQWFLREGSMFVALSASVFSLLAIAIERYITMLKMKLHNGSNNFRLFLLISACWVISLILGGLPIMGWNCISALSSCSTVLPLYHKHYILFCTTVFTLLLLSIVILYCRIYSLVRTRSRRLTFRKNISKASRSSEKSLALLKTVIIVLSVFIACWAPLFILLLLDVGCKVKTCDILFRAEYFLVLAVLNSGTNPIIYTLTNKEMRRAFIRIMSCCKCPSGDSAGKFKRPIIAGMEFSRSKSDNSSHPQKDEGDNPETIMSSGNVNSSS

SMILES | inhibition at 10 µM (human Edg-1(S1P1) [1]; [3]) [%] | inhibition at 10 µM (human Edg-1(S1P1) [2]; [4]) [%] | inhibition at 10 µM (human Edg-1(S1P1) [1]; [5]) [%] | inhibition at 10 µM (human Edg-1(S1P1) [2]; [6]) [%] | Membrane system binding test % inhibition (10 μM) (human Edg-1(S1P1) [2]; 10 μM compound, membrane fraction of Edg-1(S1P1) gene transferred HEK-293 cells) [%]
CCn1c(SC2CCc3ccccc3C2)nnc1[C@@H](C)NS(=O)(=O)c1ccc(Cl)cc1 (some centres unmarked) [Compound 36] | 89.5 | 104 |  |  | 
CCn1c(OCC(F)(F)F)nnc1[C@@H](C)NS(=O)(=O)c1cccc(OC)c1 [Compound 516] |  |  | 101 | 61.9 | 
CCn1c(OC)nnc1[C@H](C)NS(=O)(=O)c1ccc(C(C)(C)C)cc1 [Compound 201] | 92.6 | 45.3 |  |  | 
CCOc1nnc([C@@H](C)NS(=O)(=O)c2ccc3ccccc3c2)n1CC [Compound 402] | 90.4 | 95.8 |  |  | 
CCn1c(SCc2ccc(F)cc2)nnc1[C@@H](C)NS(=O)(=O)c1ccc(Cl)cc1 [Compound 11] | 85.5 | 45.1 |  |  | 
CCn1c(SCC2CCCCCCC2)nnc1[C@@H](C)NS(=O)(=O)c1ccc(Cl)cc1 [Compound 35] | 91.9 | 87.7 |  |  | 
CCn1c(OCC(C)(C)C)nnc1[C@@H](C)NS(=O)(=O)c1ccc(Cl)cc1 [Compound 377] | 97.9 | 90.3 |  |  | 
CCn1c(OC(C)C)nnc1[C@@H](C)NS(=O)(=O)c1ccc(I)cc1 [Compound 476] |  |  | 100 | 86.1 | 
CCn1c(OCC(F)(F)F)nnc1[C@@H](C)NS(=O)(=O)c1ccc(C(F)(F)F)cc1 [Compound 500] |  |  | 103 | 81.6 | 
CCn1c(SCCCN(C)C)nnc1[C@@H](C)NS(=O)(=O)c1ccc(Cl)cc1 [Compound 67] | 73.8 | 42.2 |  |  | 
CCn1c(OC)nnc1[C@@H](C)NS(=O)(=O)c1ccc(F)c(F)c1F [Compound 285] | 97.1 | 63.9 |  |  | 
CCn1c(OC)nnc1[C@@H](C)NS(=O)(=O)c1cc(F)cc(F)c1 [Compound 311] | 97.6 | 52.4 |  |  | 
CCn1c(SC2CCN(C)CC2)nnc1[C@@H](C)NS(=O)(=O)c1ccc(Cl)cc1 [Compound 70] | 88.4 | 98 |  |  | 
CCn1c(OC)nnc1[C@@H](C)NS(=O)(=O)c1cnc(Cl)c(Br)c1 [Compound 251] | 102 | 106 |  |  | 
CCOc1nnc([C@@H](C)NS(=O)(=O)c2ccc(C)c(F)c2)n1CC [Compound 411] | 95.9 | 81.8 |  |  | 
CCn1c(OC)nnc1[C@@H](C)NS(=O)(=O)c1c(F)c(F)c(F)c(F)c1F [Compound 237] | 95.4 | 52.5 |  |  | 
CCn1c(OC)nnc1[C@@H](COC)NS(=O)(=O)c1ccc(Cl)cc1 [Compound 459] |  |  | 89.9 | 68.5 | 
CCn1c(OC)nnc1[C@@H](C)NS(=O)(=O)c1cc(Br)cc(C(F)(F)F)c1 [Compound 371] | 102 | 61.2 |  |  | 
CCn1c(OCCCCCCN(C)C)nnc1[C@@H](C)NS(=O)(=O)c1ccc(Cl)cc1 [Compound 189] | 105 | 107 |  |  | 
CCn1c(SCc2ccccc2C)nnc1[C@@H](C)NS(=O)(=O)c1ccc(Cl)cc1 [Compound 32] | 89.1 | 99.1 |  |  | 

SMILES | inhibition at 10 µM (human Edg-1(S1P1) [1]; [3]) [%] | inhibition at 10 µM (human Edg-1(S1P1) [2]; [4]) [%] | inhibition at 10 µM (human Edg-1(S1P1) [1]; [5]) [%] | inhibition at 10 µM (human Edg-1(S1P1) [2]; [6]) [%] | Membrane system binding test % inhibition (10 μM) (human Edg-1(S1P1) [2]; 10 μM compound, membrane fraction of Edg-1(S1P1) gene transferred HEK-293 cells) [%]
CCn1c(OC)nnc1[C@@H](C)NS(=O)(=O)CCc1cccc2ccccc12 [Compound 235] | 111 | 63.8 |  |  | 
C=CCSc1nnc([C@@H](CC)NS(=O)(=O)c2ccc(Cl)cc2)n1CCC [Compound 113] | 84 |  |  |  | 46.3
CCn1c(OC2CCCC2)nnc1[C@@H](C)NS(=O)(=O)c1ccc(Cl)cc1 [Compound 382] | 97.8 | 99.6 |  |  | 
CCn1c(OC)nnc1[C@@H](C)NS(=O)(=O)c1ccc(Br)c(Br)c1 [Compound 272] | 102 | 94.3 |  |  | 
CCCCOc1nnc([C@@H](C)NS(=O)(=O)c2ccc(Cl)cc2)n1CC [Compound 396] | 87.9 | 83.3 |  |  | 
CCOc1nnc([C@@H](C)NS(=O)(=O)c2ccc(F)c(F)c2)n1CC [Compound 403] | 86.1 | 85.9 |  |  | 
CCn1c(SCc2cccc(N(C)C)c2)nnc1[C@@H](C)NS(=O)(=O)c1ccc(Cl)cc1 [Compound 71] | 89.7 | 104 |  |  | 
CCn1c(OC)nnc1[C@@H](C)NS(=O)(=O)c1ccc(C#N)cc1 [Compound 277] | 99.7 | 51.4 |  |  | 
CCn1c(SCC(F)F)nnc1[C@@H](C)NS(=O)(=O)c1ccc(Cl)cc1 [Compound 57] | 92.6 | 100 |  |  | 
CCn1c(OC)nnc1[C@@H](C)NS(=O)(=O)c1ccc(C(C)C)cc1 [Compound 282] | 92.7 | 48.1 |  |  | 
CCOc1nnc([C@@H](C)NS(=O)(=O)c2ccc(Br)c(F)c2)n1CC [Compound 405] | 90.4 | 88.2 |  |  | 
CC#CCSc1nnc([C@@H](C)NS(=O)(=O)c2ccc(Cl)cc2)n1CC [Compound 27] | 86.9 | 76 |  |  | 
CCn1c(OC)nnc1[C@H](C)NS(=O)(=O)c1ccccc1Br [Compound 204] | 97.8 | 45.4 |  |  | 
CCn1c(OC)nnc1[C@@H](C)NS(=O)(=O)c1cc(C)sc1C [Compound 367] | 97 | 41.8 |  |  | 
C=CCSc1nnc([C@@H](Cc2ccccc2)NS(=O)(=O)c2ccc(Cl)cc2)n1CCC [Compound 141] | 94.8 | 79.5 |  |  | 
CCn1c(SCC2CCC2)nnc1[C@@H](C)NS(=O)(=O)c1ccc(Cl)cc1 [Compound 34] | 91.5 | 76.4 |  |  | 
CCn1c(OC)nnc1[C@@H](C)NS(=O)(=O)c1ccc2c(c1)OCCN2C [Compound 344] | 102 | 65.8 |  |  | 
CCn1c(SCCCC#Cc2ccccc2)nnc1[C@@H](C)NS(=O)(=O)c1ccc(Cl)cc1 [Compound 18] | 84.8 | 100 |  |  | 
C=CCCCOc1nnc([C@@H](C)NS(=O)(=O)c2ccc(Cl)cc2)n1CC [Compound 384] | 104 | 93.5 |  |  | 
CCOc1nnc([C@@H](C)NS(=O)(=O)c2ccc(Cl)cc2)n1CC [Compound 186] | 89.3 | 94.5 |  |  | 

SMILES | inhibition at 10 µM (human Edg-1(S1P1) [1]; [3]) [%] | inhibition at 10 µM (human Edg-1(S1P1) [2]; [4]) [%] | inhibition at 10 µM (human Edg-1(S1P1) [1]; [5]) [%] | inhibition at 10 µM (human Edg-1(S1P1) [2]; [6]) [%] | Membrane system binding test % inhibition (10 μM) (human Edg-1(S1P1) [2]; 10 μM compound, membrane fraction of Edg-1(S1P1) gene transferred HEK-293 cells) [%]
CCOc1nnc([C@@H](C)NS(=O)(=O)c2cc(F)c(Br)cc2F)n1CC [Compound 451] | 94.2 | 62.7 |  |  | 
CCCCn1c(OC)nnc1[C@@H](C)NS(=O)(=O)c1ccc(Cl)cc1 [Compound 544] |  |  | 47.5 | 100 | 
CCn1c(SCc2cccc(C#N)c2)nnc1[C@@H](C)NS(=O)(=O)c1ccc(Cl)cc1 [Compound 7] | 88.5 | 74.6 |  |  | 
CCn1c(SCc2c(Cl)cccc2Cl)nnc1[C@@H](C)NS(=O)(=O)c1ccc(Cl)cc1 [Compound 43] | 90.5 | 102 |  |  | 
CCn1c(SCCn2ccnc2)nnc1[C@@H](C)NS(=O)(=O)c1ccc(Cl)cc1 [Compound 84] | 87.9 | 100 |  |  | 
CCn1c(OC(C)C)nnc1[C@@H](C)NS(=O)(=O)c1cc(F)c(Br)cc1F [Compound 482] |  |  | 90.7 | 72.3 | 
CCn1c(OC)nnc1[C@@H](C)NS(=O)(=O)c1ccc([N+](=O)[O-])cc1 [Compound 233] | 99.8 | 93.2 |  |  | 
CCn1c(OC)nnc1[C@H](C)NS(=O)(=O)c1ccc(NC(C)=O)cc1 [Compound 198] | 92.5 | 46.7 |  |  | 
CCn1c(SCCS(=O)(=O)c2ccccc2)nnc1[C@@H](C)NS(=O)(=O)c1ccc(Cl)cc1 [Compound 80] | 86.2 | 87.5 |  |  | 
CCn1c(SC(c2ccccc2)c2ccccc2)nnc1[C@@H](C)NS(=O)(=O)c1ccc(Cl)cc1 [Compound 40] | 87 | 46.1 |  |  | 
CCOc1nnc([C@@H](C)NS(=O)(=O)c2cccc(OC(F)F)c2)n1CC [Compound 416] | 100 | 77.7 |  |  | 
C=CCSc1nnc(C(Cc2ccccc2)NS(=O)(=O)c2ccc(Cl)cc2)n1C (centres unmarked) [Compound 135] | 86.7 | 96.9 |  |  | 
CCn1c(OCC(F)(F)F)nnc1[C@@H](C)NS(=O)(=O)c1cccc(Cl)c1 [Compound 514] |  |  | 98.4 | 86.7 | 
CCCCOc1ccc(S(=O)(=O)N[C@@H](C)c2nnc(OC)n2CC)cc1 [Compound 205] | 99.6 | 47.4 |  |  | 
CCn1c(OC)nnc1[C@@H](C)NS(=O)(=O)c1cccc(OC(F)F)c1 [Compound 310] | 98.5 | 78.8 |  |  | 
CCn1c(OCCN2CCOCC2)nnc1[C@@H](C)NS(=O)(=O)c1ccc(Cl)cc1 [Compound 393] | 82.4 | 65.3 |  |  | 
CCn1c(OC)nnc1[C@@H](C)NS(=O)(=O)c1cc(C(F)(F)F)cc(C(F)(F)F)c1 [Compound 265] | 98.2 | 69.5 |  |  | 
CCn1c(SCC(C)C)nnc1[C@@H](C)NS(=O)(=O)c1ccc(Cl)cc1 [Compound 33] | 91.7 | 90 |  |  | 
